Experimental data taken from patent publication US12692249B2, “WDR5 inhibitors and modulators” (Vanderbilt University, priority 2019, dated 2026).

Key:
WDR5 = WDR5 (Homo sapiens, UniProt P61964); test: TR-FRET competition binding assay, displacement of 10mer-Thr-FAM MLL peptide probe from His-tagged WDR5; details: WDR5-His tag (residues 24-334) 2 nM; 10mer-Thr-FAM 150 nM; 60 min, room temperature; read-out: Ki for Inhibition of WDR5 by TR-FRET assay
Procedure: Time Resolved-Fluorescence Energy Transfer Competition Assay […] Excess 10mer-Thr-FAM probe was utilized with His-tagged WDR5 in conjunction with a commercial anti-His antibody containing a Terbium label. The LanthaScreenTM Elite Tb-anti-HIS Antibody from ThermoFisher Scientific was used for this purpose. […] The 10mer-Thr-FAM probe when bound to WDR5 will undergo a FRET interaction with the Tb-anti-HIS and emit at 520 nm. […] WDR[…] 10[…] used at 150 nM. […] A source plate is prepared using an Echo Liquid Handler, which distributes the compounds to the assay plate (white, flat-bottom; OptiPlate) in a 10-point, 5-fold dilution schemes with a top concentration of 5 μM, in a final volume of 20 μL. […] The final DMSO concentration in each well of the assay plate is 1% or lower. The plate is covered, shielded from light, and incubated for 60 minutes at room temperature with rocking. 10mer-Thr-FAM and Anti-His terbium antibody fluorescence is then measured on a Biotek Cytation 3 at excitation wavelength of 340 nm, and emission wavelengths of 495 nm and 520 nm. […] TR-FRET signal is plotted and IC50 and Ki values are calculated according to the formula of Wang Z. FEBS Lett (1996) 3, 245. Ki=[I]50/([L]50/Kd+[P]0/Kd+1) where [I]50 is the concentration of the free inhibitor at 50% inhibition, [L]50 is the concentration of the free labeled ligand at 50% inhibition, [P]0 is the concentration of the free protein at 0% inhibition, Kd represents the dissociation constant of the FITC-MLL or 10mer-Thr-FAM probe for WDR5. Total fluorescence is also measured, to rule out compounds that are inherently fluorescent or able to act as quenchers in the assay. TR-FRET Binding Assay

[1] = test system: MV4:11 human cancer cell lines; test: Cellular viability / anti-proliferative assay, CellTiter-Glo, 5 day protocol; assay type: cell-based; details: Homo sapiens, MV4-11, 120 h, MV4:11 cells; 5 day incubation; CellTiter-Glo; mean of at least two replicates; read-out: GI50 on cellular proliferation of MV4:11 human cancer cell lines
Procedure: Cellular Viability of Human Tumor Cell Lines
Anti-proliferative activity using MLL-harboring cell lines. MV-4-11 and K562 cells are grown in IMDM media supplemented with 10% FBS and 1% penicillin/streptomycin, Molm-13 cells are cultured in RPMI-1640 media supplemented with 10% FBS and 1% penicillin/streptomycin. Viability assays are performed by dispensing 200 cells at 7200 cells/mL into each well of an opaque 384-well plate and adding compounds at the indicated concentrations in a final volume, of 32 μL. and a final concentration of DMSO of 0.3% for all samples. A certain range of compound concentrations is made through a series of 2-fold dilutions starting 30 μM at the highest, total 22 dilutions. After a set incubation period, 5 day protocol, the viability of cells in each well is assessed using the CellTiter-Glo assay (Promega), read on a 96 Microplane Luminometer (Cytation 3, BioTek). Serial dilutions of each cell type are performed in all assays to generate standard curves and the final densities of cells are determined within the dynamic range of the instrument. GI50 values are calculated based on XLfit software (IDBS, Guildford, UK) with Sigmoidal Dose-Response Model. Each compound is tested in minimum of two replicates. Data are expressed as mean.

Compound | Ki (WDR5) [nM] | GI50 [1] [nM]
Cc1nccn1Cc1cc2c(c(-c3cn(C)nc3C(F)(F)F)c1)CCN(c1cccc3ccccc13)C2=O [Example 1, 7-((2-Methyl-1H-imidazol-1-yl)methyl)-5-(1-methyl-3-(trifluoromethyl)-1H-pyrazol-4-yl)-2-(naphthalen-1-yl)-3,4-dihydroisoquinolin-1(2H)-one] | 0.46 | 1540
Cc1nccn1Cc1cc2c(c(-c3cn(C)nc3C(F)(F)F)c1)CCN(c1ccnc3cc(Cl)ccc13)C2=O [Example 2, 2-(7-Chloroquinolin-4-yl)-7-((2-methyl-1H-imidazol-1-yl)methyl)-5-(1-methyl-3-(trifluoromethyl)-1H-pyrazol-4-yl)-3,4-dihydroisoquinolin-1(2H)-one] | 0.05 | 189
COc1cnc2cccc(N3CCc4c(cc(Cn5ccnc5C)cc4-c4cn(C)nc4C(F)(F)F)C3=O)c2c1 [Example 3, 2-(3-Methoxyquinolin-5-yl)-7-((2-methyl-1H-imidazol-1-yl)methyl)-5-(1-methyl-3-(trifluoromethyl)-1H-pyrazol-4-yl)-3,4-dihydroisoquinolin-1(2H)-one] | < 0.02 | 20
COc1ccc2nccc(N3CCc4c(cc(Cn5ccnc5C)cc4-c4cn(C)nc4C(F)(F)F)C3=O)c2c1 [Example 4, 2-(6-Methoxyquinolin-4-yl)-7-((2-methyl-1H-imidazol-1-yl)methyl)-5-(1-methyl-3-(trifluoromethyl)-1H-pyrazol-4-yl)-3,4-dihydroisoquinolin-1(2H)-one] | < 0.02 | < 20
COc1ccc2ccnc(N3CCc4c(cc(Cn5ccnc5C)cc4-c4cn(C)nc4C(F)(F)F)C3=O)c2c1 [Example 5, 7-Methoxy-7′-((2-methyl-1H-imidazol-1-yl)methyl)-5-(1-methyl-3-(trifluoromethyl)-1H-pyrazol-4-yl)-3′,4-dihydro-1′H-[1,2′-biisoquinolin]-1′-one] | 0.034 | 83
COc1cc2c(N3CCc4c(cc(Cn5ccnc5C)cc4-c4cn(C)nc4C(F)(F)F)C3=O)ccnc2cc1C [Example 6, 2-(6-Methoxy-7-methylquinolin-4-yl)-7-((2-methyl-1H-imidazol-1-yl)methyl)-5-(1-methyl-3-(trifluoromethyl)-1H-pyrazol-4-yl)-3,4-dihydroisoquinolin-1(2H)-one] | 0.024 | 32
COc1cc(C)c2nccc(N3CCc4c(cc(Cn5ccnc5C)cc4-c4cn(C)nc4C(F)(F)F)C3=O)c2c1 [Example 7, 2-(6-Methoxy-8-methylquinolin-4-yl)-7-((2-methyl-1H-imidazol-1-yl)methyl)-5-(1-methyl-3-(trifluoromethyl)-1H-pyrazol-4-yl)-3,4-dihydroisoquinolin-1(2H)-one] | 0.026 | 29
COc1ccc2nc(C)cc(N3CCc4c(cc(Cn5ccnc5C)cc4-c4cn(C)nc4C(F)(F)F)C3=O)c2c1 [Example 8, 2-(6-Methoxy-2-methylquinolin-4-yl)-7-((2-methyl-1H-imidazol-1-yl)methyl)-5-(1-methyl-3-(trifluoromethyl)-1H-pyrazol-4-yl)-3,4-dihydroisoquinolin-1(2H)-one] | 0.026 | < 20
Cc1ccc2cncc(N3CCc4c(cc(Cn5ccnc5)cc4-c4cn(C)nc4C(F)(F)F)C3=O)c2c1 [Example 16, 7-((1H-Imidazol-1-yl)methyl)-6′-methyl-5-(1-methyl-3-(trifluoromethyl)-1H-pyrazol-4-yl)-3,4-dihydro-1-[2,4′-biisoquinolin]-1-one] | 0.028 | 42
COc1cc(OC)c2nccc(N3CCc4c(cc(Cn5ccnc5)cc4-c4cn(C)nc4C(F)(F)F)C3=O)c2c1 [Example 17, 7-((1H-Imidazol-1-yl)methyl)-2-(6,8-dimethoxyquinolin-4-yl)-5-(1-methyl-3-(trifluoromethyl)-1H-pyrazol-4-yl)-3,4-dihydroisoquinolin-1(2H)-one] | 0.025 | < 20

Continued, values first:

Ki (WDR5) [nM] | GI50 [1] [nM] | Compound
0.048 | 43 | COc1ccc2ncc(Cl)c(N3CCc4c(cc(Cn5ccnc5C)cc4-c4cn(C)nc4C(F)(F)F)C3=O)c2c1 [Example 9, 2-(3-Chloro-6-methoxyquinolin-4-yl)-7-((2-methyl-1H-imidazol-1-yl)methyl)-5-(1-methyl-3-(trifluoromethyl)-1H-pyrazol-4-yl)-3,4-dihydroisoquinolin-1(2H)-one]
0.029 | < 20 | Cc1ccc2cncc(N3CCc4c(cc(Cn5ccnc5C)cc4-c4cn(C)nc4C(F)(F)F)C3=O)c2c1 [Example 10, 6′-Methyl-7-((2-methyl-1H-imidazol-1-yl)methyl)-5-(1-methyl-3-(trifluoromethyl)-1H-pyrazol-4-yl)-3,4-dihydro-1H-[2,4′-biisoquinolin]-1-one]
0.035 | 3890 | COc1ccc(N2CCc3c(cc(Cn4ccnc4C)cc3-c3cn(C)nc3C(F)(F)F)C2=O)c2cc(C)cnc12 [Example 11, 2-(8-Methoxy-3-methylquinolin-5-yl)-7-((2-methyl-1H-imidazol-1-yl)methyl)-5-(1-methyl-3-(trifluoromethyl)-1H-pyrazol-4-yl)-3,4-dihydroisoquinolin-1(2H)-one]
< 0.02 | 34 | COc1cnc2cccc(N3CCc4c(cc(Cn5ccnc5)cc4-c4cn(C)nc4C(F)(F)F)C3=O)c2c1 [Example 12, 7-((1H-Imidazol-1-yl)methyl)-2-(3-methoxyquinolin-5-yl)-5-(1-methyl-3-(trifluoromethyl)-1H-pyrazol-4-yl)-3,4-dihydroisoquinolin-1(2H)-one]
< 0.02 | 45 | COc1ccc2nccc(N3CCc4c(cc(Cn5ccnc5)cc4-c4cn(C)nc4C(F)(F)F)C3=O)c2c1 [Example 13, 7-((1H-Imidazol-1-yl)methyl)-2-(6-methoxyquinolin-4-yl)-5-(1-methyl-3-(trifluoromethyl)-1H-pyrazol-4-yl)-3,4-dihydroisoquinolin-1(2H)-one]
0.026 | 64 | Cc1ccc2nccc(N3CCc4c(cc(Cn5ccnc5)cc4-c4cn(C)nc4C(F)(F)F)C3=O)c2c1 [Example 15, 7-((1H-Imidazol-1-yl)methyl)-5-(1-methyl-3-(trifluoromethyl)-1H-pyrazol-4-yl)-2-(6-methylquinolin-4-yl)-3,4-dihydroisoquinolin-1(2H)-one]
< 0.02 | < 20 | COc1cc(OC)c2nc(C)cc(N3CCc4c(cc(Cn5ccnc5)cc4-c4cn(C)nc4C(F)(F)F)C3=O)c2c1 [Example 18, 7-((1H-Imidazol-1-yl)methyl)-2-(6,8-dimethoxy-2-methylquinolin-4-yl)-5-(1-methyl-3-(trifluoromethyl)-1H-pyrazol-4-yl)-3,4-dihydroisoquinolin-1(2H)-one]
0.02 | 26 | COc1cc(C)cc2c(N3CCc4c(cc(Cn5ccnc5)cc4-c4cn(C)nc4C(F)(F)F)C3=O)ccnc12 [Example 19, 7-((1H-Imidazol-1-yl)methyl)-2-(8-methoxy-6-methylquinolin-4-yl)-5-(1-methyl-3-(trifluoromethyl)-1H-pyrazol-4-yl)-3,4-dihydroisoquinolin-1(2H)-one]
< 0.02 | < 20 | CCc1cc(OC)c2nccc(N3CCc4c(cc(Cn5ccnc5)cc4-c4cn(C)nc4C(F)(F)F)C3=O)c2c1 [Example 20, 7-((1H-Imidazol-1-yl)methyl)-2-(6-ethyl-8-methoxyquinolin-4-yl)-5-(1-methyl-3-(trifluoromethyl)-1H-pyrazol-4-yl)-3,4-dihydroisoquinolin-1(2H)-one]
< 0.02 |  | CCc1cc(NC(C)=O)c2nccc(N3CCc4c(cc(Cn5ccnc5)cc4-c4cn(C)nc4C(F)(F)F)C3=O)c2c1 [Example 231, N-(4-(7-((1H-Imidazol-1-yl)methyl)-5-(1-methyl-3-(trifluoromethyl)-1H-pyrazol-4-yl)-1-oxo-3,4-dihydroisoquinolin-2(1H)-yl)-6-ethylquinolin-8-yl)acetamide]
